Test results published in PMC10726465, “Synthesis and Evaluation of Small Molecule Inhibitors of the Androgen Receptor N-Terminal Domain” (ACS Medicinal Chemistry Letters, 2023).
pIC50: −log10 of the molar value. In brackets after ≈: the same amount, converted by molar mass. One block for each compound: values may come before it.

Columns and labels:
[1] = system: prostate-specific antigen (PSA) expression; assay: Inhibition of hormone-dependent expression of PSA in VCaP cells (Western blot); type: cell-based; settings: 1 nM DHT, 24 h
Method: In addition to this, we evaluated hormone-dependent expression of prostate-specific antigen (PSA) in VCaP cells (see the Supporting Information).
(§1) VCaP cells, obtained from the American Type Culture Collection, were maintained in Dulbecco’s Modified Eagles Medium (DMEM) supplemented with 10% foetal bovine serum. Cells were maintained at 37°C without antibiotics in a humidified atmosphere
(§2) Inhibition of hormone-dependent expression of prostate specific antigen (PSA):
(§3) VCaP prostate cells were treated with 1 nM DHT in the absence or presence of inhibitor. After 24 hours cells were harvested and PSA detected by Western blotting and normalised against β-actin.

[2] = Thermodynamic aqueous solubility; type: physicochemical
[3] = in vitro; type: in vitro ADME; settings: human, Caco-2
Text: (§4) DMPK and physicochemical data were generated by Cyprotex Ltd, Alderley Park, Macclesfield, UK and Pharmaron Inc, Ningbo, China.

[4] = system: Caco2 cell; assay: in vitro; type: in vitro ADME
Text: as §4

[5] = Human liver microsome stability; type: in vitro ADME; settings: human liver microsomes
Text: PSA expression (%inhibition) 34%
Plots of activity against
values for each small molecule determined.
Macclesfield, UK and Pharmaron Inc, Ningbo, China.

[6] = Plasma protein binding; type: in vitro ADME; settings: mouse
[7] = target: CYP 3A4 (Homo sapiens, UniProt P08684); assay: CYP450 inhibition (3A4); type: in vitro ADME
[8] = target: CYP 2D6 (Homo sapiens, UniProt P10635); assay: CYP450 inhibition (2D6); type: in vitro ADME
[9] = In vivo pharmacokinetic profile in male CD-1 mice; settings: mouse
Text: Encouraged by the promising in vitro profile, compound 16 was advanced, and a pharmacokinetic (PK) profile was obtained in male CD-1 mice (Table 6).

[10] = target: hERG channel (Homo sapiens, UniProt Q12809); assay: hERG channel inhibition, Q-patch clamp assay
[11] = target: T1, androgen receptor (AR) (Homo sapiens, UniProt P10275); settings: for Lipophilic Ligand Efficiency (LLE): from VCaP GRE2-luciferase IC50 and cLogP; for pIC50: read-out: VCaP GRE2-luciferase IC50, 24 h, 0–30 µM compound; for pIC50 / activity in VCaP GRE2-luciferase assay (in words): VCaP cells, 1 nM DHT; for Ligand Efficiency (LE): from VCaP GRE2-luciferase IC50
T1 sequence (P10275 1-920): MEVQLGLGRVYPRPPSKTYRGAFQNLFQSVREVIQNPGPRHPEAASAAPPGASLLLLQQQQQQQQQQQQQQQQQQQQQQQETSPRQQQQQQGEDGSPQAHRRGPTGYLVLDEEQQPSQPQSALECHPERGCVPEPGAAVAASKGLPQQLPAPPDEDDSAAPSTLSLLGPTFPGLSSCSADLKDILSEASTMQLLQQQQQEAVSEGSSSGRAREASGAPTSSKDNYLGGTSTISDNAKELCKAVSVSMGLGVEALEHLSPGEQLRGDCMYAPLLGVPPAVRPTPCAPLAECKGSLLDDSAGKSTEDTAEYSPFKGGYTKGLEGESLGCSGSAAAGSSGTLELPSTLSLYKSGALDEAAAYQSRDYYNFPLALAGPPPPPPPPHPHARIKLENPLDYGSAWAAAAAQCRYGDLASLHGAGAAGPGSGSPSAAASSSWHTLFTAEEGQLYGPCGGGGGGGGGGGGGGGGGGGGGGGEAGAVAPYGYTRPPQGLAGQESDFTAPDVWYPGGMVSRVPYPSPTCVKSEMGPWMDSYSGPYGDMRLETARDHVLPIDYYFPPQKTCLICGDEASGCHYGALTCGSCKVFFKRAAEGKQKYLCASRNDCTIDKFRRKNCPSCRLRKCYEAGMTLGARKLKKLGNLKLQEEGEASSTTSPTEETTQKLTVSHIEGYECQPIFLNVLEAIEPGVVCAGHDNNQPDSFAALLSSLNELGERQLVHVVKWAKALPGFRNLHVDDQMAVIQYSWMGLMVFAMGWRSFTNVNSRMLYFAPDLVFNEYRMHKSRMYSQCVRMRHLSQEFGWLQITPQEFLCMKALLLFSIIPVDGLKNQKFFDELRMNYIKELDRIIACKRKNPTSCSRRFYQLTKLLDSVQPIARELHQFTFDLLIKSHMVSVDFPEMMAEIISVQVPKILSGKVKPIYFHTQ
Method: as §1
Transient transfection and Luciferase Activity Assay:
Cells at 70–80% confluence in 24 well plates, were transferred to DMEM
300ng/well of the firefly reporter plasmid, GRE2-TATA-luc using JetPEI (PolyPLUS Transfection) according to the manufacturers’ protocol.
replaced with fresh DMEM +5% CSS containing either DMSO (vehicle control) or 0– 30 µM small molecules together with 1nM DHT. Twenty four hours later, medium was aspirated, cells were washed with PBS and extracted with Passive Lysis Buffer
Cell debris was removed by centrifugation at 13,000 xg for 5min and supernatants collected. Luciferase activity was measured in triplicate, using an in-house luciferase assay buffer (13 mM MgSO4 7H2O, 30 mM
amount of total cellular protein.
as §2, §3
Luciferase activity in cells treated with small molecules was determined as a percentage of the untreated control, which was set at 100%. Plots of activity against small molecule concentration (log) were analysed in GraphPad PRISM 5 and IC50 values for each small molecule determined.

[12] = target: T2, AR-v (ARNTD–DBD) (Homo sapiens, UniProt P10275); assay: AR-v splice variant activity in PC3 cells transfected with ARNTD–DBD expression plasmid and GRE2-luciferase reporter; settings: PC-3, read-out: inhibition of AR-v activity
T2 sequence (P10275 1-632 limits assumed): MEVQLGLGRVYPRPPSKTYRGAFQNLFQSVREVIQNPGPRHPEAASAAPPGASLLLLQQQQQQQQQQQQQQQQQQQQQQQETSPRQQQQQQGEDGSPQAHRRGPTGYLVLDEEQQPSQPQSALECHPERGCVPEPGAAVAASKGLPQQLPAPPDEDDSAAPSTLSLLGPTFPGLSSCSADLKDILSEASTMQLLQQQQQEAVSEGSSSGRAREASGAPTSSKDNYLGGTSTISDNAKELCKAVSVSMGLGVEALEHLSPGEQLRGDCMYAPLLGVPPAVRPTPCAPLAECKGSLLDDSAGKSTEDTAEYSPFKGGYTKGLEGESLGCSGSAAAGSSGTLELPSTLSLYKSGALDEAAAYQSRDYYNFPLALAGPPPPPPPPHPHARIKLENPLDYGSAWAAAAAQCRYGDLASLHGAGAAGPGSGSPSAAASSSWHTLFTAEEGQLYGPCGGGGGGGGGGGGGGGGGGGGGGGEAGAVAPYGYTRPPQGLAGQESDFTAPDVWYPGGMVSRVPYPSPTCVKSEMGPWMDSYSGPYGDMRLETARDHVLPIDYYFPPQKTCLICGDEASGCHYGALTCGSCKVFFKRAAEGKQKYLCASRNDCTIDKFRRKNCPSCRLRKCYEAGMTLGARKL
Method: To this end, AR-v splice variant activity was determined through transfection of PC3 cells with an ARNTD–DBD expression plasmid and a GRE2-luciferase reporter gene (Figure 3).[43]

CYP 3A4, sequence (P08684 whole entry): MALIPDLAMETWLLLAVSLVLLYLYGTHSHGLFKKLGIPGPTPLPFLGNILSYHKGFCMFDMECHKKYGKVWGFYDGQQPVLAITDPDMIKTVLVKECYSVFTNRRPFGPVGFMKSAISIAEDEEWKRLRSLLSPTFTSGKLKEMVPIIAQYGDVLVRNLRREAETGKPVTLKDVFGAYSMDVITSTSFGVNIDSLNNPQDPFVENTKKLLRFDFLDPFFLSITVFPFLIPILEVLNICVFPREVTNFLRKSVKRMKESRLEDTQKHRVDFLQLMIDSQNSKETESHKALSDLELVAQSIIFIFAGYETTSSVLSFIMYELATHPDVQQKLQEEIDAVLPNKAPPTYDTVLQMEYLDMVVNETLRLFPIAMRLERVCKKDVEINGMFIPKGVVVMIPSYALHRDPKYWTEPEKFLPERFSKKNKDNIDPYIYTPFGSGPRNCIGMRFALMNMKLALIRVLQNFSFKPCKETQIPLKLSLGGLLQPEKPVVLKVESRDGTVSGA
CYP 2D6, sequence (P10635 whole entry): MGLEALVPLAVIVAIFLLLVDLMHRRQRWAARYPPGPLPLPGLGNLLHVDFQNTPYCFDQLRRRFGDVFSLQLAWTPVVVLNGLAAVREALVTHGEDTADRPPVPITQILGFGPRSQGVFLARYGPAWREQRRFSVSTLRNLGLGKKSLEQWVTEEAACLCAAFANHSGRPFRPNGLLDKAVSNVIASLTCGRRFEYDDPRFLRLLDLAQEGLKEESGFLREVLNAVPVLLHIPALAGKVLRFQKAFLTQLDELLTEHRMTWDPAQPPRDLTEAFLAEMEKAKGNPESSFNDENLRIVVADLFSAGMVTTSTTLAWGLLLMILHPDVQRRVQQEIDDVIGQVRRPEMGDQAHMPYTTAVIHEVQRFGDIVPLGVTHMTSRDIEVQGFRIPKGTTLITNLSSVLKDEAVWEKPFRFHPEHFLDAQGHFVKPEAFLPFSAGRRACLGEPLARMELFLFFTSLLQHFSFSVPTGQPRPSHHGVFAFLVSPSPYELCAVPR
hERG channel, sequence (Q12809 whole entry): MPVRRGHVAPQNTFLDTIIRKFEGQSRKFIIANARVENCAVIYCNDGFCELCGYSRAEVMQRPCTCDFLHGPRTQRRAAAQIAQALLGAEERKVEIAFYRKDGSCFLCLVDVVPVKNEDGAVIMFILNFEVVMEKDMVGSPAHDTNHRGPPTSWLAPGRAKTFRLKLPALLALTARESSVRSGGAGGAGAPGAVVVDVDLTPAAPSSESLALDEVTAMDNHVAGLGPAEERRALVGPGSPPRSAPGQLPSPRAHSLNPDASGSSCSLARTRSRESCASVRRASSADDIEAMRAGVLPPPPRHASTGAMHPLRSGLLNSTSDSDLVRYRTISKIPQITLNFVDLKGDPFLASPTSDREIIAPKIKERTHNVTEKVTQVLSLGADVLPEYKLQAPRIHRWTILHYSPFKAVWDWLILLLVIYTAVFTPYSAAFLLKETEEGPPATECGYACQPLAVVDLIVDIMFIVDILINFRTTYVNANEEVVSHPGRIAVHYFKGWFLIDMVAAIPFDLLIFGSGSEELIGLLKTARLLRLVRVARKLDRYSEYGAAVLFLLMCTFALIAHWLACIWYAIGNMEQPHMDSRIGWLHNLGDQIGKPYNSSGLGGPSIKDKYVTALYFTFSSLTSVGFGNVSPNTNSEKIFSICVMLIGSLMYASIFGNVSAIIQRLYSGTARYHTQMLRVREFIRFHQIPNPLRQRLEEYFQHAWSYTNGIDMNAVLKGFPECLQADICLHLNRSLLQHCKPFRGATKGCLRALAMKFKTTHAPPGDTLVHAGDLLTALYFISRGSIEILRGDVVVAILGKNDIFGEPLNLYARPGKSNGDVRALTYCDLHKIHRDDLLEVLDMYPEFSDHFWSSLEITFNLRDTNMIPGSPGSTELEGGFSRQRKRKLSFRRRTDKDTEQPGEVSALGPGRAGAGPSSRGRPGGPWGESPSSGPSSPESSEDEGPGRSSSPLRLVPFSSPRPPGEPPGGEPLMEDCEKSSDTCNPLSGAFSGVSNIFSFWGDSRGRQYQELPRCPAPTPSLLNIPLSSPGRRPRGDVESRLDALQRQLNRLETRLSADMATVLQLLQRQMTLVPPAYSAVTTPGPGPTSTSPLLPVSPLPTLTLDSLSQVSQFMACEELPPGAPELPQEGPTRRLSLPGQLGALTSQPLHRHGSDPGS

activity in VCaP GRE2-luciferase assay (in words) [11]: loss of activity
Ligand Efficiency (LE) [11]: 0.49
Lipophilic Ligand Efficiency (LLE) [11]: 5.0
pIC50 [11]: < 4.52
Structure (SMILES): CCc1ccc(C(N)=O)cc1-c1ccc2c(cnn2C)c1 [Compound 42]

activity in VCaP GRE2-luciferase assay (in words) [11]: loss of activity
Ligand Efficiency (LE) [11]: 0.52
Lipophilic Ligand Efficiency (LLE) [11]: 5.4
pIC50 [11]: < 4.52
Structure (SMILES): Cc1ccc(C(N)=O)cc1-c1ccc2c(cnn2C)c1 [Compound 41]

Ligand Efficiency (LE) [11]: 0.41
Lipophilic Ligand Efficiency (LLE) [11]: 6.4
pIC50 [11]: < 4.52
Structure (SMILES): CN(C)CCNc1ccc(C(N)=O)cc1-c1ccc2c(cnn2C)c1 [Compound 57]

Ligand Efficiency (LE) [11]: 0.44
Lipophilic Ligand Efficiency (LLE) [11]: 4.9
pIC50 [11]: 5.66
Structure (SMILES): Cn1ncc2cc(-c3cc(C(N)=O)ccc3SCc3ccccc3)ccc21 [Compound 40]

activity in VCaP GRE2-luciferase assay (in words) [11]: inactive
Ligand Efficiency (LE) [11]: 0.49
Lipophilic Ligand Efficiency (LLE) [11]: 5.3
pIC50 [11]: < 4.52
Structure (SMILES): CSc1cc(C(N)=O)cc(-c2ccc3c(cnn3C)c2)c1 [Compound 39]

activity in VCaP GRE2-luciferase assay (in words) [11]: loss of activity
Ligand Efficiency (LE) [11]: 0.52
Lipophilic Ligand Efficiency (LLE) [11]: 5.4
pIC50 [11]: < 4.52
Structure (SMILES): COc1cc(-c2cc(C(N)=O)ccc2SC)ccc1N [Compound 30]

Ligand Efficiency (LE) [11]: 0.52
Lipophilic Ligand Efficiency (LLE) [11]: 4.4
pIC50 [11]: < 4.52
Structure (SMILES): CSc1ccc(C(N)=O)cc1-c1ccc2c(c1)CCO2 [Compound 27]

Ligand Efficiency (LE) [11]: 0.43
Lipophilic Ligand Efficiency (LLE) [11]: 4.6
pIC50 [11]: < 4.52
Structure (SMILES): Cn1ncc2cc(-c3cc(C(N)=O)ccc3OC(F)(F)F)ccc21 [Compound 48]

Ligand Efficiency (LE) [11]: 0.77
Lipophilic Ligand Efficiency (LLE) [11]: 8.2
pIC50 [11]: 6.57
Structure (SMILES): CSc1ccc(C(N)=O)cc1-c1cncnc1 [Compound 24]

The remaining lines, values behind:

Structure (SMILES): CSc1ccc(C(N)=O)cc1-c1ccc2c(cnn2C)c1 [Compound 16]
PSA expression (% inhibition) ([1]; 10 μM): 34%
solubility [2]: 2.6 µM (≈ 0.773 µg/mL)
Papp A→B ([3]; apical to basolateral, read-out: Caco2 permeability Papp A2B): 33.1 ×10⁻⁶ cm/s
Papp B→A ([3]; basolateral to apical, read-out: Caco2 permeability Papp B2A): 39.4 ×10⁻⁶ cm/s
efflux ratio ([3]; read-out: Caco2 efflux ratio): 1.2
Caco2 permeability Papp A2B ([4]; apical to basolateral): 3.31 ×10⁻⁶ cm/s
Caco2 permeability Papp B2A ([4]; basolateral to apical): 3.94 ×10⁻⁶ cm/s
microsomal CLint ([5]; read-out: HLM CLint): 25.6 µL/min/mg
half-life ([5]; read-out: HLM t1/2): 54 min
fraction unbound [6]: 0.069
CYP450 inhibition, 3A4 isoform (in words) [7]: no inhibition
pIC50 [7]: < 4.60
CYP450 inhibition, 2D6 isoform (in words) [8]: no inhibition
pIC50 [8]: < 4.60
AUC0–t ([9]; iv 1 mg/kg): 131 ng·h/mL
AUC0–∞ ([9]; iv 1 mg/kg): 132 ng·h/mL
CL ([9]; iv 1 mg/kg): 126 mL min^–1 kg^–1
Cmax ([9]; iv 1 mg/kg): 432 ng/mL
Vss_obs ([9]; iv 1 mg/kg): 1.38 L/kg
t1/2 ([9]; iv 1 mg/kg): 17.4 min
AUC0–t ([9]; po 10 mg/kg): 173 ng·h/mL
AUC0–∞ ([9]; po 10 mg/kg): 208 ng·h/mL
Cmax ([9]; po 10 mg/kg): 195 ng/mL
F (oral bioavailability) ([9]; po 10 mg/kg): 16%
Tmax ([9]; po 10 mg/kg): 0.25
t1/2 ([9]; po 10 mg/kg): 240 min
hERG channel inhibition (in words) ([10]; Q-patch clamp assay): no hERG channel inhibition
pIC50 ([10]; read-out: hERG IC50): < 5.00
increase in potency over initial hit compound 7 ([11]; VCaP GRE2-luciferase IC50 ratio): 60 fold
Lipophilic Ligand Efficiency (LLE) [11]: 4.7
pIC50 [11]: 6.92
inhibition at 10 µM [12]: 35%

Structure (SMILES): CC(C)(c1ccc(OCC(O)CO)cc1)c1ccc(OCC(O)CCl)cc1 (stereo not drawn) [EPI-001, reference compound]
PSA expression (% inhibition) ([1]; 50 μM): 19%

Structure (SMILES): CSc1ccc(C(N)=O)cc1-c1cccs1 [Compound 9]
Ligand Efficiency (LE) [11]: 0.79
Lipophilic Ligand Efficiency (LLE) [11]: 6.3
pIC50 [11]: 6.22

Structure (SMILES): CSc1ccc(C(N)=O)cc1-c1ccccc1 [Compound 8]
activity in VCaP GRE2-luciferase assay (in words) [11]: inactive
Ligand Efficiency (LE) [11]: 0.61
Lipophilic Ligand Efficiency (LLE) [11]: 4.6
pIC50 [11]: < 4.52

Structure (SMILES): CSc1ccc(C(N)=O)cc1-c1ccc2[nH]ncc2c1 [Compound 12]
Ligand Efficiency (LE) [11]: 0.59
Lipophilic Ligand Efficiency (LLE) [11]: 6.6
pIC50 [11]: 6.15

Structure (SMILES): CSc1ccc(C(N)=O)cc1-c1ccc2nccn2c1 [Compound 18]
activity in VCaP GRE2-luciferase assay (in words) [11]: no activity
Ligand Efficiency (LE) [11]: 0.52
Lipophilic Ligand Efficiency (LLE) [11]: 5.7
pIC50 [11]: < 4.52

Structure (SMILES): CSc1ccc(C(N)=O)cc1-c1ccc2[nH]cnc2c1 [Compound 15]
Ligand Efficiency (LE) [11]: 0.62
Lipophilic Ligand Efficiency (LLE) [11]: 6.6
pIC50 [11]: 6.04

Structure (SMILES): CSc1ccc(C(N)=O)cc1-c1ccc2cn[nH]c2c1 [Compound 14]
Ligand Efficiency (LE) [11]: 0.63
Lipophilic Ligand Efficiency (LLE) [11]: 7.1
pIC50 [11]: 5.66
